Data as given in ChEMBL document CHEMBL4732090, “Preparation of new 1,3-dibenzyl tetrahydropyridinylidene ammonium salts and their antimicrobial and anticellular activities” (Eur J Med Chem, 2021).

Key:
Plasmodium falciparum [1] = experiment: Antiplasmodial activity against chloroquine and pyrimethamine resistant Plasmodium falciparum K1 strain; format: functional, organism-based
[2] = Selectivity index, ratio of IC50 for rat L6 cells to IC50 for chloroquine and pyrimethamine resistant Plasmodium falciparum K1; format: toxicity; conditions: read-out: Ratio IC50
Escherichia coli = experiment: Antibacterial activity against Escherichia coli ATCC 25922 assessed as diameter of inhibition zone at 10 mg/ml by disk diffusion assay; format: functional; conditions: read-out: DIZ
Staphylococcus aureus = experiment: Antibacterial activity against Staphylococcus aureus ATCC 29213 assessed as diameter of inhibition zone at 10 mg/ml by disk diffusion assay; format: functional; conditions: read-out: DIZ
[3] = system: Trypanosoma brucei rhodesiense; experiment: Trypanocidal activity against Trypanosoma brucei rhodesiense STIB900 incubated for 70 hrs by Alamar blue assay; format: functional, organism-based; conditions: STIB900, 70 h
Pseudomonas aeruginosa = experiment: Antibacterial activity against Pseudomonas aeruginosa ATCC 27853 assessed as diameter of inhibition zone at 10 mg/ml by disk diffusion assay; format: functional; conditions: read-out: DIZ
[4] = Selectivity index, ratio of IC50 for rat L6 cells to IC50 for Plasmodium falciparum NF54; format: toxicity; conditions: read-out: Ratio IC50
[5] = Selectivity index, ratio of IC50 for rat L6 cells to IC50 for Trypanosoma brucei rhodesiense STIB900; format: toxicity; conditions: read-out: Ratio IC50
L6 = experiment: Cytotoxicity against rat L6 cells after 70 hrs by Alamar blue assay; format: cell-based; conditions: L6, 70 h
Candida albicans = experiment: Antifungal activity against Candida albicans ATCC 90028 assessed as diameter of inhibition zone at 10 mg/ml by disk diffusion assay; format: functional; conditions: read-out: DIZ
Plasmodium falciparum [6] = experiment: Antiplasmodial activity against Plasmodium falciparum NF54 erythrocytic stages assessed as reduction in [3H]hypoxanthine incorporation measured after 48 hrs by liquid scintillation counting method; format: functional, organism-based
[7] = system: Staphylococcus epidermidis; experiment: Antibacterial activity against Staphylococcus epidermis ATCC 12228 assessed as diameter of inhibition zone at 10 mg/ml by disk diffusion assay; format: functional; conditions: read-out: DIZ
U-251 = experiment: Cytotoxicity against human U-251 cells assessed as inhibition of cell growth at 50 uM after 72 hrs by XTT assay relative to control; format: functional
HCT-116 = experiment: Cytotoxicity against human HCT-116 cells assessed as inhibition of cell growth at 50 uM after 72 hrs by XTT assay relative to control; format: functional

Compound | IC50 (Plasmodium falciparum [6]) [nM] | IC50 (Plasmodium falciparum [1]) [nM] | selectivity ratio [2] | zone of inhibition at 10000 µg/mL (Escherichia coli) [mm] | zone of inhibition at 10000 µg/mL (Staphylococcus aureus) [mm] | IC50 [3] [nM] | zone of inhibition at 10000 µg/mL (Pseudomonas aeruginosa) [mm] | selectivity ratio [4] | selectivity ratio [5] | IC50 (L6; read-out: IC50) [nM] | zone of inhibition at 10000 µg/mL (Candida albicans) [mm] | zone of inhibition at 10000 µg/mL [7] [mm] | inhibition at 50 µM (U-251) [%] | inhibition at 50 µM (HCT-116) [%] | IC50 (L6) [nM]
C[C@@H]1CC[C@H]2[C@@H](C)C(=O)O[C@@H]3O[C@@]4(C)CC[C@@H]1[C@]32OO4 [ARTEMISININ] | – | 3.4 | 132000 | – | – | – | – | – | – | – | – | – | – | – | –
CC1(C)C(Cc2ccc(C(F)(F)F)cc2)C(=[N+]2CCCC2)C=CN1Cc1ccc(C(F)(F)F)cc1 (racemic) | 8.3 | 3.1 | 8520 | 15 | 22 | 420 | 7 | 3180 | 62.9 | 26400 | 25 | 31 | 100 | 100 | –
CC1(C)C(Cc2c(Cl)cccc2Cl)C(=[N+]2CCCC2)C=CN1Cc1ccccc1 (racemic) | 31 | – | – | 10 | 23 | 63 | 7 | 483 | 238 | 15000 | 10 | 26 | – | – | –
O=C(O)c1cn(C2CC2)c2cc(N3CCNCC3)c(F)cc2c1=O [CIPROFLOXACIN] | – | – | – | – | 14 | – | 0 | – | – | – | 0 | – | – | – | –
Nc1nc(N)nc(Nc2ccc([As]3SCC(CO)S3)cc2)n1 (stereo not given) [MELARSOPROL] | – | – | – | – | – | – | – | – | 2000 | – | – | – | – | – | –
CC1(C)C(Cc2ccccc2)C(=[N+]2CCCC2)C=CN1Cc1ccccc1 (racemic) | 32 | 55 | 888 | 12 | 21 | 130 | 0 | 1530 | 376 | 48800 | 0 | 25 | – | – | –
CC1(C)C(Cc2ccccc2C(F)(F)F)C(=[N+]2CCCC2)C=CN1Cc1ccccc1 (racemic) | 85 | – | – | 13 | 23 | 100 | 0 | 912 | 776 | 77600 | 10 | 22 | – | – | –
CC1(C)C(Cc2ccc(Cl)cc2Cl)C(=[N+]2CCCC2)C=CN1Cc1ccccc1 (racemic) | 18 | – | – | 12 | 22 | 110 | 0 | 1450 | 237 | 26100 | 15 | 26 | – | – | –
COc1cc([C@@H]2c3cc4c(cc3[C@H](O)[C@H]3COC(=O)[C@H]23)OCO4)cc(OC)c1OC [PODOFILOX] | – | – | – | – | – | – | – | – | – | – | – | – | – | – | 12
CC1(C)C(Cc2c(Cl)cccc2Cl)C(=[N+]2CCCC2)C=CN1Cc1c(Cl)cccc1Cl (racemic) | 38 | – | – | 14 | 23 | 24 | 6 | 23.9 | 37.9 | 910 | 25 | 34 | 100 | 100 | –
CC1(C)C(Cc2c(Cl)cccc2Cl)C(=[N+]2CCCC2)C=CN1Cc1ccc(Cl)cc1 (racemic) | 3.6 | 6 | 755 | 15 | 21 | 52 | 12 | 1260 | 87.1 | 4530 | 20 | 33 | 100 | 100 | –
CC1(C)S[C@@H]2[C@H](NC(=O)[C@H](N)c3ccccc3)C(=O)N2[C@H]1C(=O)O [AMPICILLIN] | – | – | – | 15 | – | – | 0 | – | – | – | 0 | 45 | – | – | –
CC1(C)C(Cc2ccc(C#N)cc2)C(=[N+]2CCCC2)C=CN1Cc1ccccc1 (stereo not given) | 17 | 120 | > 1790 | 8 | 14 | 11000 | 5 | > 12700 | > 19.6 | > 215000 | 0 | 12 | – | – | –
CC1(C)C(Cc2ccccc2)C(=[N+]2CCCCC2)C=CN1Cc1ccccc1 (racemic) | 15 | 24 | 1024 | 10 | 22 | 44 | 0 | 1640 | 558 | 24600 | 0 | 28 | – | – | –
COc1cc(Cc2cnc(N)nc2N)cc(OC)c1OC [TRIMETHOPRIM] | – | – | – | – | 22 | – | 0 | – | – | – | 0 | – | – | – | –
CCN(CC)CCCC(C)Nc1ccnc2cc(Cl)ccc12 (stereo not given) [CHLOROQUINE] | – | – | – | – | – | – | – | – | – | 117000 | – | – | – | – | –

The next lines start with results.

IC50 (Plasmodium falciparum [6]) [nM] | Compound | IC50 (Plasmodium falciparum [1]) [nM] | selectivity ratio [2] | zone of inhibition at 10000 µg/mL (Escherichia coli) [mm] | zone of inhibition at 10000 µg/mL (Staphylococcus aureus) [mm] | IC50 [3] [nM] | zone of inhibition at 10000 µg/mL (Pseudomonas aeruginosa) [mm] | selectivity ratio [4] | selectivity ratio [5] | IC50 (L6; read-out: IC50) [nM] | zone of inhibition at 10000 µg/mL (Candida albicans) [mm] | zone of inhibition at 10000 µg/mL [7] [mm] | inhibition at 50 µM (U-251) [%] | inhibition at 50 µM (HCT-116) [%] | IC50 (L6) [nM]
89 | CC1(C)C(Cc2ccccc2)C(=[N+]2CCCC2)C=CN1Cc1ccc([N+](=O)[O-])cc1 (racemic) | – | – | 7 | 12 | 1030 | 0 | 2320 | 200 | 206000 | 0 | 14 | – | – | –
43 | CC1(C)C(Cc2ccc([N+](=O)[O-])cc2)C(=[N+]2CCCC2)C=CN1Cc1ccccc1 (racemic) | – | – | 11 | 15 | 5450 | 0 | 4800 | 37.9 | 206000 | 0 | 18 | – | – | –
39 | CC(C)c1ccc(CC2C(=[N+]3CCCC3)C=CN(Cc3ccccc3)C2(C)C)cc1 (racemic) | – | – | 10 | 25 | 42 | 6 | 64.4 | 59.8 | 2510 | 21 | 29 | 100 | 100 | –
30 | CC(C)(C)c1ccc(CC2C(=[N+]3CCCC3)C=CN(Cc3ccccc3)C2(C)C)cc1 (racemic) | – | – | 15 | 22 | 20 | 0 | 31.3 | 47 | 940 | 22 | 24 | 100 | 100 | –
26 | CC1(C)C(Cc2ccc(C(F)(F)F)cc2)C(=[N+]2CCCC2)C=CN1Cc1ccccc1 (racemic) | – | – | 11 | 22 | 320 | 0 | 3300 | 268 | 85900 | 15 | 24 | – | – | –
7.7 | CC1(C)C(Cc2ccc(Br)cc2)C(=[N+]2CCCC2)C=CN1Cc1ccccc1 (racemic) | – | – | 11 | 22 | 180 | 0 | 4480 | 192 | 34500 | 13 | 25 | – | – | –
30 | CC1(C)C(Cc2ccccc2)C(=[N+]2CCCC2)C=CN1Cc1ccc(Cl)cc1 (racemic) | – | – | 13 | 22 | 120 | 0 | 1260 | 316 | 37900 | 20 | 29 | – | – | –
17 | CC1(C)C(Cc2ccc(Cl)cc2)C(=[N+]2CCCC2)C=CN1Cc1ccccc1 (racemic) | – | – | 8 | 24 | 500 | 0 | 5260 | 179 | 89500 | 11 | 21 | – | – | –
